{"source": "PubChem BioAssay (NCI)", "assay_in_all_cases": "NCI-60 cell line screen, 384-well format", "key": {"786-0 renal": {"test_system": "786-0 renal"}, "A498 renal": {"test_system": "A498 renal"}, "A549 NSCLC": {"test_system": "A549 NSCLC"}, "ACHN renal": {"test_system": "ACHN renal"}, "BT-549 breast": {"test_system": "BT-549 breast"}, "CAKI-1 renal": {"test_system": "CAKI-1 renal"}, "CCRF-CEM leukemia": {"test_system": "CCRF-CEM leukemia"}, "COLO 205 colon": {"test_system": "COLO 205 colon"}, "DU-145 prostate": {"test_system": "DU-145 prostate"}, "EKVX NSCLC": {"test_system": "EKVX NSCLC"}, "HCC-2998 colon": {"test_system": "HCC-2998 colon"}, "HCT-116 colon": {"test_system": "HCT-116 colon"}, "HCT-15 colon": {"test_system": "HCT-15 colon"}, "HL-60(TB) leukemia": {"test_system": "HL-60(TB) leukemia"}, "HOP-62 NSCLC": {"test_system": "HOP-62 NSCLC"}, "HOP-92 NSCLC": {"test_system": "HOP-92 NSCLC"}, "HS 578T breast": {"test_system": "HS 578T breast"}, "HT29 colon": {"test_system": "HT29 colon"}, "IGROV1 ovarian": {"test_system": "IGROV1 ovarian"}, "K-562 leukemia": {"test_system": "K-562 leukemia"}, "KM12 colon": {"test_system": "KM12 colon"}, "LOX IMVI melanoma": {"test_system": "LOX IMVI melanoma"}, "M14 melanoma": {"test_system": "M14 melanoma"}, "MALME-3M melanoma": {"test_system": "MALME-3M melanoma"}, "MCF7 breast": {"test_system": "MCF7 breast"}, "MDA-MB-231 breast": {"test_system": "MDA-MB-231 breast"}, "MDA-MB-435 melanoma": {"test_system": "MDA-MB-435 melanoma"}, "MDA-MB-468 breast": {"test_system": "MDA-MB-468 breast"}, "MOLT-4 leukemia": {"test_system": "MOLT-4 leukemia"}, "NCI-H226 lung": {"test_system": "NCI-H226 lung"}}, "note": "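The concentration for 50% growth inhibition is given as GI50. At the TGI there is no net growth.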", "data": [{"smiles": "Cc1ccncc1N1CCN(c2ccnc(Cl)c2)C1=O", "values": [{"measurement": "GI50", "setting": "786-0 renal", "value": "> 100", "unit": "µM"}, {"measurement": "TGI", "setting": "786-0 renal", "value": "> 100", "unit": "µM"}, {"measurement": "GI50", "setting": "A498 renal", "value": "> 100", "unit": "µM"}, {"measurement": "TGI", "setting": "A498 renal", "value": "> 100", "unit": "µM"}, {"measurement": "GI50", "setting": "A549 NSCLC", "value": "> 100", "unit": "µM"}, {"measurement": "TGI", "setting": "A549 NSCLC", "value": "> 100", "unit": "µM"}, {"measurement": "GI50", "setting": "ACHN renal", "value": "> 100", "unit": "µM"}, {"measurement": "TGI", "setting": "ACHN renal", "value": "> 100", "unit": "µM"}, {"measurement": "GI50", "setting": "BT-549 breast", "value": "> 100", "unit": "µM"}, {"measurement": "TGI", "setting": "BT-549 breast", "value": "> 100", "unit": "µM"}, {"measurement": "GI50", "setting": "CAKI-1 renal", "value": "> 100", "unit": "µM"}, {"measurement": "TGI", "setting": "CAKI-1 renal", "value": "> 100", "unit": "µM"}, {"measurement": "GI50", "setting": "CCRF-CEM leukemia", "value": "> 100", "unit": "µM"}, {"measurement": "TGI", "setting": "CCRF-CEM leukemia", "value": "> 100", "unit": "µM"}, {"measurement": "GI50", "setting": "COLO 205 colon", "value": "> 100", "unit": "µM"}, {"measurement": "TGI", "setting": "COLO 205 colon", "value": "> 100", "unit": "µM"}, {"measurement": "GI50", "setting": "DU-145 prostate", "value": "> 100", "unit": "µM"}, {"measurement": "TGI", "setting": "DU-145 prostate", "value": "> 100", "unit": "µM"}, {"measurement": "GI50", "setting": "EKVX NSCLC", "value": "> 100", "unit": "µM"}, {"measurement": "TGI", "setting": "EKVX NSCLC", "value": "> 100", "unit": "µM"}, {"measurement": "GI50", "setting": "HCC-2998 colon", "value": "> 100", "unit": "µM"}, {"measurement": "TGI", "setting": "HCC-2998 colon", "value": "> 100", "unit": "µM"}, {"measurement": "GI50", "setting": "HCT-116 colon", "value": "> 100", "unit": "µM"}, {"measurement": "TGI", "setting": "HCT-116 colon", "value": "> 100", "unit": "µM"}, {"measurement": "GI50", "setting": "HCT-15 colon", "value": "> 100", "unit": "µM"}, {"measurement": "TGI", "setting": "HCT-15 colon", "value": "> 100", "unit": "µM"}, {"measurement": "GI50", "setting": "HL-60(TB) leukemia", "value": "> 100", "unit": "µM"}, {"measurement": "TGI", "setting": "HL-60(TB) leukemia", "value": "> 100", "unit": "µM"}, {"measurement": "GI50", "setting": "HOP-62 NSCLC", "value": "> 100", "unit": "µM"}, {"measurement": "TGI", "setting": "HOP-62 NSCLC", "value": "> 100", "unit": "µM"}, {"measurement": "GI50", "setting": "HOP-92 NSCLC", "value": "> 100", "unit": "µM"}, {"measurement": "TGI", "setting": "HOP-92 NSCLC", "value": "> 100", "unit": "µM"}, {"measurement": "GI50", "setting": "HS 578T breast", "value": "> 100", "unit": "µM"}, {"measurement": "TGI", "setting": "HS 578T breast", "value": "> 100", "unit": "µM"}, {"measurement": "GI50", "setting": "HT29 colon", "value": "> 100", "unit": "µM"}, {"measurement": "TGI", "setting": "HT29 colon", "value": "> 100", "unit": "µM"}, {"measurement": "GI50", "setting": "IGROV1 ovarian", "value": "> 100", "unit": "µM"}, {"measurement": "TGI", "setting": "IGROV1 ovarian", "value": "> 100", "unit": "µM"}, {"measurement": "GI50", "setting": "K-562 leukemia", "value": "> 100", "unit": "µM"}, {"measurement": "TGI", "setting": "K-562 leukemia", "value": "> 100", "unit": "µM"}, {"measurement": "GI50", "setting": "KM12 colon", "value": "> 100", "unit": "µM"}, {"measurement": "TGI", "setting": "KM12 colon", "value": "> 100", "unit": "µM"}, {"measurement": "GI50", "setting": "LOX IMVI melanoma", "value": "> 100", "unit": "µM"}, {"measurement": "TGI", "setting": "LOX IMVI melanoma", "value": "> 100", "unit": "µM"}, {"measurement": "GI50", "setting": "M14 melanoma", "value": "> 100", "unit": "µM"}, {"measurement": "TGI", "setting": "M14 melanoma", "value": "> 100", "unit": "µM"}, {"measurement": "GI50", "setting": "MALME-3M melanoma", "value": "> 100", "unit": "µM"}, {"measurement": "TGI", "setting": "MALME-3M melanoma", "value": "> 100", "unit": "µM"}, {"measurement": "GI50", "setting": "MCF7 breast", "value": "> 100", "unit": "µM"}, {"measurement": "TGI", "setting": "MCF7 breast", "value": "> 100", "unit": "µM"}, {"measurement": "GI50", "setting": "MDA-MB-231 breast", "value": "> 100", "unit": "µM"}, {"measurement": "TGI", "setting": "MDA-MB-231 breast", "value": "> 100", "unit": "µM"}, {"measurement": "GI50", "setting": "MDA-MB-435 melanoma", "value": "> 100", "unit": "µM"}, {"measurement": "TGI", "setting": "MDA-MB-435 melanoma", "value": "> 100", "unit": "µM"}, {"measurement": "GI50", "setting": "MDA-MB-468 breast", "value": "> 100", "unit": "µM"}, {"measurement": "TGI", "setting": "MDA-MB-468 breast", "value": "> 100", "unit": "µM"}, {"measurement": "GI50", "setting": "MOLT-4 leukemia", "value": "> 100", "unit": "µM"}, {"measurement": "TGI", "setting": "MOLT-4 leukemia", "value": "> 100", "unit": "µM"}, {"measurement": "GI50", "setting": "NCI-H226 lung", "value": "> 100", "unit": "µM"}]}]}
